In PMC9598367, “Discovery and Preliminary Structure-Activity Investigation of 3-Substituted-1H-imidazol-5-yl-1H-indoles with In Vitro Activity towards Methicillin-Resistant Staphylococcus aureus” (Antibiotics, 2022):
In brackets after ≈: the same amount, converted by molar mass. Like-named read-outs stand apart in the source and are kept apart here. Marks after values point to notes of the source that are not given here.

Experiments:
[1] = system: Cryptococcus neoformans ATCC208821; experiment: Antifungal MIC, C. neoformans; format: cell-based; settings: Cryptococcus neoformans ATCC208821; mean (n = 2)
Experimental: For the antifungal assay, fungi strains were cultured for 3 days on yeast extract-peptone dextrose (YPD) agar at 30 °C. A yeast suspension of 1 × 10^6 to 5 × 10^6 CFU/mL was prepared from five colonies. These stock suspensions were diluted with yeast nitrogen base (YNB) (Becton Dickinson, 233520) broth to a final concentration of 2.5 × 10^3 CFU/mL. The compounds were serially diluted 2-fold across the wells of 96-well plates (Corning 3641, nonbinding surface), with compound concentrations ranging from 0.015 to 64 μg/mL and final volumes of 50 μL, plated in duplicate. Then, 50 μL of the fungi suspension that was previously prepared in YNB broth to the final concentration of 2.5 × 10^3 CFU/mL was added to each well of the compound-containing plates, giving a final compound concentration range of 0.008 to 32 μg/mL. Plates were covered and incubated at 35 °C for 36 h without shaking. C. albicans MICs were determined by measuring the absorbance at OD530. For C. neoformans, resazurin was added at 0.006% final concentration to each well and incubated for a further 3 h before MICs were determined by measuring the absorbance at OD570–600.
(§1) Colistin and vancomycin were used as positive bacterial inhibitor standards for Gram-negative and Gram-positive bacteria, respectively. Fluconazole was used as a positive fungal inhibitor standard for C. albicans and C. neoformans. The antibiotics were provided in 4 concentrations, with 2 above and 2 below its MIC value, and plated into the first 8 wells of column 23 of the 384-well NBS plates. The quality control (QC) of the assays was determined by the antimicrobial controls and the Z′-factor (using positive and negative controls).

[2] = system: Staphylococcus aureus ATCC43300 (MRSA); experiment: MIC, MRSA ATCC43300 (CO-ADD protocol); format: cell-based; settings: for MIC: Staphylococcus aureus, read-out: MIC (µg/mL) MRSA
Text: Additional antimicrobial evaluation against Staphylococcus aureus MRSA (ATCC43300), Pseudomonas aeruginosa (ATCC27853), Escherichia coli (ATCC25922), Klebsiella pneumoniae (ATCC700603), Acinetobacter baumannii (ATCC19606), Candida albicans (ATCC90028), and Cryptococcus neoformans (ATCC208821) was undertaken at the Community for Open Antimicrobial Drug Discovery at The University of Queensland (Australia) according to their standard protocols. For antimicrobial assays, the tested strains were cultured in either Luria broth (LB) (In Vitro Technologies, USB75852, Noble Park North, Australia), nutrient broth (NB) (Becton Dickson, 234000, Macquarie Park, Australia), or cation-adjusted MHB at 37 °C overnight. A sample of culture was then diluted 40-fold in fresh MHB and incubated at 37 °C for 1.5−2 h. The compounds were serially diluted 2-fold across the wells of 96-well plates (Corning 3641, Tewksbury, MA, USA, nonbinding surface), with compound concentrations ranging from 0.015 to 64 μg/mL, plated in duplicate. The resultant mid log phase cultures were diluted to the final concentration of 1 × 10^6 CFU/mL; then, 50 μL was added to each well of the compound containing plates giving a final compound concentration range of 0.008 to 32 μg/mL and a cell density of 5 × 10^5 CFU/mL. All plates were then covered and incubated at 37 °C for 18 h. Resazurin was added at 0.001% final concentration to each well and incubated for 2 h before MICs were read by eye.
as §1

[3] = HEK293 cytotoxicity assay (resazurin); format: cell-based, human; settings: human; for CC50 at 20 h: concentration at 50% cytotoxicity on HEK293 cells, mean (n = 2)
Experimental: For the HEK293 cytotoxicity assay, cells were counted manually in a Neubauer hemocytometer and plated at a density of 5000 cells/well into each well of the 384-well plates containing the 25× (2 μL) concentrated compounds. The medium used was Dulbecco’s modified eagle medium (DMEM) supplemented with 10% fetal bovine serum (FBS). Cells were incubated together with the compounds for 20 h at 37 °C, 5% CO2. To measure cytotoxicity, 5 μL (equals 100 μM final) of resazurin was added to each well after incubation, and incubated for further 3 h at 37 °C with 5% CO2. After final incubation fluorescence intensity was measured as Fex 560/10 nm, em 590/10 nm (F560/590) using a Tecan M1000 Pro monochromator plate reader. CC50 values (concentration at 50% cytotoxicity) were calculated by normalizing the fluorescence readout, with 74 μg/mL tamoxifen as negative control (0%) and normal cell growth as positive control (100%). The concentration-dependent percentage cytotoxicity was fitted to a dose response function (using Pipeline Pilot) and CC50 values determined.

human red blood cells = experiment: Hemolytic assay; format: cell-based; settings: concentration at 10% hemolytic activity on human red blood cells; mean (n = 2)
Experimental: Human whole blood was washed three times with 3 volumes of 0.9% NaCl and then resuspended in same to a concentration of 0.5 × 10^8 cells/mL, as determined by manual cell count in a Neubauer hemocytometer. The washed cells were then added to the 384-well compound-containing plates for a final volume of 50 μL. After a 10 min shake on a plate shaker the plates were then incubated for 1 h at 37 °C. After incubation, the plates were centrifuged at 1000 g for 10 min to pellet cells and debris, 25 μL of the supernatant was then transferred to a polystyrene 384-well assay plate. Hemolysis was determined by measuring the supernatant absorbance at […] (OD405). The absorbance was measured using a Tecan M1000 Pro monochromator plate reader. HC10 and HC50 (concentration at 10% and 50% hemolysis, respectively) were calculated by curve fitting the inhibition values vs. log(concentration) using a sigmoidal dose–response function with variable fitting values for top, bottom and slope.

[4] = system: Staphylococcus aureus ATCC25923; experiment: MIC by broth dilution, S. aureus ATCC25923; format: cell-based; settings: Staphylococcus aureus ATCC25923; mean (n = 3)
Experimental: The susceptibility of S. aureus (ATCC25923) to antibiotics and compounds was determined in microplates using the standard broth dilution method in accordance with the recommendations of the Comité de l’AntibioGramme de la Société Française de Microbiologie (CA-SFM) as previously described. Briefly, the minimal inhibitory concentrations (MICs) were determined with an inoculum of 10^5 CFU in 200 µL of Mueller-Hinton broth (MHB) containing two-fold serial dilutions of each drug. […] To determine all MICs, the measurements were independently repeated in triplicate.

[5] = Staphylococcus aureus ATCC43300 (MRSA), mean (n = 2)

MIC [1] [µg/mL] | MIC [2, 5] [µg/mL] | MIC [4] [µg/mL] | melting point [°C] | Compound | CC50 at 20 h [3] [µg/mL] | HC10 (µg/mL) (human red blood cells) | MIC [2] [µg/mL] | HC10 (human red blood cells) [µg/mL] | IC50 at 20 h ([3]; HEK293 cells, positive control) [µg/mL] | anti-MRSA activity (in words) ([2]; result in words)
> 32 | 32 (≈ 105 µM) | 25 (≈ 81.9 µM) |  | Fc1ccc2c(-c3cncn3CCc3ccccc3)c[nH]c2c1 [Compound 18, 6-Fluoro-3-(1-phenethyl-1H-imidazol-5-yl)-1H-indole] | 16.3 (≈ 53.4 µM) | >32^c µg/mL |  |  |  | 
 |  |  |  | CN[C@H](CC(C)C)C(=O)N[C@H]1C(=O)N[C@@H](CC(N)=O)C(=O)N[C@H]2C(=O)N[C@H]3C(=O)N[C@H](C(=O)N[C@H](C(=O)O)c4cc(O)cc(O)c4-c4cc3ccc4O)[C@H](O)c3ccc(c(Cl)c3)Oc3cc2cc(c3O[C@@H]2O[C@H](CO)[C@@H](O)[C@H](O)[C@H]2O[C@H]2C[C@](C)(N)[C@H](O)[C@H](C)O2)Oc2ccc(cc2Cl)[C@H]1O [vancomycin, reference compound] |  |  | 1 (≈ 0.69 µM) |  |  | 
> 32 | 16 (≈ 47.7 µM) | 100 (≈ 298 µM) |  | COc1ccc(CCn2cncc2-c2c[nH]c3cc(F)ccc23)cc1 [Compound 25, 6-Fluoro-3-(1-(4-methoxyphenethyl)-1H-imidazol-5-yl)-1H-indole] | 27 (≈ 80.5 µM) |  |  | >32 |  | 
> 32 | 32 (≈ 92.1 µM) | > 200 |  | COc1ccc(OC)c(CCn2cncc2-c2c[nH]c3ccccc23)c1 [Compound 29, 3-(1-(2,5-Dimethoxyphenethyl)-1H-imidazol-5-yl)-1H-indole] | 11.5 (≈ 33.1 µM) |  |  | >32 |  | 
> 32 | 8 (≈ 20.2 µM) | 12.5 (≈ 31.5 µM) | 157 to 158 | COc1ccc(CCn2cncc2-c2c[nH]c3ccc(Br)cc23)cc1 [Compound 27, 5-Bromo-3-(1-(4-methoxyphenethyl)-1H-imidazol-5-yl)-1H-indole] | 16 (≈ 40.4 µM) |  |  | >32 |  | 
 |  |  |  | CC/C(=C(\c1ccccc1)c1ccc(OCCN(C)C)cc1)c1ccccc1 [Tamoxifen, reference compound] |  |  |  |  | 9 (≈ 24.2 µM) | 
32 (≈ 87.4 µM) | 16 (≈ 43.7 µM) | 6.25 (≈ 17.1 µM) | 110 to 111 | Brc1ccc2[nH]cc(-c3cncn3CCc3ccccc3)c2c1 [Compound 21, 5-Bromo-3-(1-phenethyl-1H-imidazol-5-yl)-1H-indole] | 10.6 (≈ 28.9 µM) |  |  | >32 |  | 
16 (≈ 33.5 µM) | 16 (≈ 33.5 µM) | > 200 | > 200 | Brc1ccc2[nH]cc(-c3cncn3Cc3ccc(I)cc3)c2c1 [Compound 9, 5-Bromo-3-(1-(4-iodobenzyl)-1H-imidazol-5-yl)-1H-indole] | 5.1 (≈ 10.7 µM) |  |  | >32 |  | 
32 (≈ 87.4 µM) | 16 (≈ 43.7 µM) | 12.5 (≈ 34.1 µM) |  | Brc1ccc2c(-c3cncn3CCc3ccccc3)c[nH]c2c1 [Compound 22, 6-Bromo-3-(1-phenethyl-1H-imidazol-5-yl)-1H-indole] | 12.7 (≈ 34.7 µM) |  |  | >32 |  | 
> 32 | 16 (≈ 37.5 µM) | 25 (≈ 58.6 µM) | 141 to 142 | COc1ccc(OC)c(CCn2cncc2-c2c[nH]c3ccc(Br)cc23)c1 [Compound 34, 5-Bromo-3(1-(2,5-dimethoxyphenethyl)-1H-imidazol-5-yl)-1H-indole] | 6.2 (≈ 14.5 µM) |  |  | >32 |  | 
 |  | 0.5 to 1 (≈ 1.55 to 3.09 µM) |  | O=C(N[C@H](CO)[C@H](O)c1ccc([N+](=O)[O-])cc1)C(Cl)Cl [chloramphenicol, reference compound] |  |  |  |  |  | 
> 32 | 32 (≈ 101 µM) | 100 (≈ 315 µM) | 158 to 159 | COc1ccc(CCn2cncc2-c2c[nH]c3ccccc23)cc1 [Compound 23, 3-(1-(4-Methoxyphenethyl)-1H-imidazol-5-yl)-1H-indole] | 24.5 (≈ 77.2 µM) |  |  | >32 |  | 
 |  | 12.5 (≈ 21.5 µM) |  | [H]/N=C(/N)N[C@H]1[C@H](O)[C@@H](O)[C@H](O[C@@H]2O[C@@H](C)[C@](O)(C=O)[C@H]2O[C@@H]2O[C@@H](CO)[C@H](O)[C@@H](O)[C@@H]2NC)[C@@H](N/C(N)=N\[H])[C@@H]1O [streptomycin, reference compound] |  |  |  |  |  | 
> 32 | 16 (≈ 55.7 µM) | > 200 | 69 to 70 | c1ccc(CCn2cncc2-c2c[nH]c3ccccc23)cc1 [Compound 1, 3-(1-Phenethyl-1H-imidazol-5-yl)-1H-indole] | 19.3 (≈ 67.2 µM) |  |  | >32 |  | 
32 (≈ 91 µM) | 16 (≈ 45.5 µM) | > 200 | 165 to 166 | COc1ccc(CCn2cncc2-c2c[nH]c3cc(Cl)ccc23)cc1 [Compound 2, 6-Chloro-3-(1-(4-methoxyphenethyl)-1H-imidazol-5-yl)-1H-indole] | 22.5 (≈ 64 µM) |  |  | >32 |  | 
 |  |  | 127 to 130 | Fc1ccc2[nH]cc(-c3cncn3CCc3ccccc3)c2c1 [Compound 3, 5-Fluoro-3-(1-phenethyl-1H-imidazol-5-yl)-1H-indole] |  |  |  |  |  | devoid of activity
> 32 | 16 (≈ 49.7 µM) | 12.5 (≈ 38.8 µM) | > 200 | Clc1ccc2[nH]cc(-c3cncn3CCc3ccccc3)c2c1 [Compound 19, 5-Chloro-3-(1-phenethyl-1H-imidazol-5-yl)-1H-indole] | 17.3 (≈ 53.8 µM) |  |  | >32 |  | 
32 (≈ 83.7 µM) | 32 (≈ 83.7 µM) | 25 (≈ 65.4 µM) | 188 to 189 | COc1ccc(Cn2cncc2-c2c[nH]c3cc(Br)ccc23)cc1 [Compound 17, 6-Bromo-3-(1-(4-methoxybenzyl)-1H-imidazol-5-yl)-1H-indole] | 11.1 (≈ 29 µM) |  |  | >32 |  | 
